# Data from patent US8802597B2, “Herbicidal pyrimidines” (E I du Pont de Nemours and Company, priority 2003, dated 2014).
# Experiments:
# Format in all cases: in vivo
# [1] = test system: blackgrass (Alopecurus myosuroides); assay: Test B postemergence
# Method in brief: (§1)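 Scores reflect visual comparison with untreated controls, where 0 means no effect and 100 complete control. Plants stayed 13 to 15 days in the greenhouse after pre- or postemergence treatment with compounds carried in a non-phytotoxic solvent and surfactant.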
# wild oat (Avena fatua) = assay: Test B postemergence
# Method in brief: as §1
# [2] = test system: lambsquarters (Chenopodium album); assay: Test B pre/postemergence
# Method in brief: as §1
# [3] = test system: Surinam grass (Brachiaria decumbens); assay: Test B pre/postemergence; settings: for Surinam Grass plant response rating: scale 0 to 100 (0 no effect, 100 complete control)
# Method in brief: as §1
# [4] = test system: barnyardgrass (Echinochloa crus-galli); assay: Test B pre/postemergence
# Method in brief: as §1
# [5] = test system: velvetleaf (Abutilon theophrasti); assay: Test B pre/postemergence
# Method in brief: as §1
# [6] = test system: crabgrass (Digitaria sanguinalis); assay: Test B pre/postemergence
# Method in brief: as §1
# [7] = test system: cocklebur (Xanthium strumarium); assay: Test B pre/postemergence
# Method in brief: as §1
# [8] = test system: pigweed (Amaranthus retroflexus); assay: Test B pre/postemergence
# Method in brief: as §1
# [9] = test system: giant foxtail (Setaria faberii); assay: Test B pre/postemergence
# Method in brief: as §1
# [10] = test system: morningglory (Ipomoea coccinea); assay: Test B pre/postemergence
# Method in brief: as §1
# corn (Zea mays) = assay: Test B pre/postemergence
# Method in brief: as §1
# [11] = test system: wheat (Triticum aestivum); assay: Test B pre/postemergence
# Method in brief: as §1
# [12] = test system: barnyardgrass (Echinochloa crus-galli); assay: Test B flooded paddy test; settings: Flood, 1000 g ai/ha; scale 0 (no effect) to 100 (complete control)
# Method in brief: (§2)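 Rice, umbrella sedge, duck salad and barnyardgrass grown to 2-leaf stage under flooded paddy conditions and treated with formulated test chemicals. Kept in greenhouse 13–15 days, then visually rated against untreated controls on a 0–100 scale (0 no effect, 100 complete control).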
# [13] = test system: duck salad (Heteranthera limosa); assay: Test B flooded paddy test; settings: Flood, 1000 g ai/ha; scale 0 to 100
# Method in brief: as §2
# rice (Oryza sativa) = assay: Test B flooded paddy test; settings: Flood, 1000 g ai/ha; scale 0 to 100
# Method in brief: as §2
# [14] = test system: umbrella sedge (Cyperus difformis); assay: Test B flooded paddy test; settings: Flood, 1000 g ai/ha; scale 0 to 100
# Method in brief: as §2
# [15] = 125 g ai/ha, scale 0 to 100 (0 no effect, 100 complete control)
# [16] = Postemergence, 125 g ai/ha, scale 0 to 100 (0 no effect, 100 complete control)
# [17] = Postemergence, 500 g ai/ha, scale 0 to 100
# [18] = Preemergence, 125 g ai/ha, scale 0 to 100 (0 no effect, 100 complete control)
# [19] = Preemergence, 500 g ai/ha, scale 0 to 100 (0 no effect, 100 complete control)
smiles,measurement,setting,value
CCOC(=O)c1nc(-c2ccc(Cl)cc2)nc(N)c1Br [Compound 37],Blackgrass plant response rating,[1]; [15],40
same,"Plant response rating, Blackgrass","[1]; 500 g ai/ha, scale 0 to 100",60
same,"Oat, Wild plant response rating",wild oat (Avena fatua); [15],0
same,"Plant response rating, Oat, Wild","wild oat (Avena fatua); 500 g ai/ha, scale 0 to 100",0
same,Lambsquarters plant response rating,[2]; [16],100
same,"Plant response rating, Lambsquarters",[2]; [17],100
same,"Plant response rating, Lambsquarters",[2]; [18],100
same,Lambsquarters plant response rating,[2]; [19],100
same,Surinam Grass plant response rating,"[3]; Postemergence, 125 g ai/ha",20
same,"Plant response rating, Surinam Grass",[3]; [17],70
same,Surinam Grass plant response rating,"[3]; Preemergence, 500 g ai/ha",40
same,Barnyardgrass plant response rating,[4]; [16],0
same,"Plant response rating, Barnyardgrass",[4]; [17],90
same,"Plant response rating, Barnyardgrass",[4]; [18],10
same,Barnyardgrass plant response rating,[4]; [19],40
same,Velvetleaf plant response rating,[5]; [16],80
same,"Plant response rating, Velvetleaf",[5]; [17],100
same,"Plant response rating, Velvetleaf",[5]; [18],40
same,Velvetleaf plant response rating,[5]; [19],80
same,Crabgrass plant response rating,[6]; [16],60
same,"Plant response rating, Crabgrass",[6]; [17],80
same,"Plant response rating, Crabgrass",[6]; [18],50
same,Crabgrass plant response rating,[6]; [19],90
same,Cocklebur plant response rating,[7]; [16],100
same,"Plant response rating, Cocklebur",[7]; [17],100
same,"Plant response rating, Cocklebur",[7]; [18],20
same,Cocklebur plant response rating,[7]; [19],80
same,Pigweed plant response rating,[8]; [16],100
same,"Plant response rating, Pigweed",[8]; [17],100
same,"Plant response rating, Pigweed",[8]; [18],100
same,Pigweed plant response rating,[8]; [19],100
same,"Foxtail, Giant plant response rating",[9]; [16],10
same,"Plant response rating, Foxtail, Giant",[9]; [17],60
same,"Plant response rating, Foxtail, Giant",[9]; [18],10
same,"Foxtail, Giant plant response rating",[9]; [19],60
same,Morningglory plant response rating,[10]; [16],90
same,"Plant response rating, Morningglory",[10]; [17],100
same,"Plant response rating, Morningglory",[10]; [18],10
same,Morningglory plant response rating,[10]; [19],50
same,Corn plant response rating,corn (Zea mays); [16],0
same,"Plant response rating, Corn",corn (Zea mays); [17],70
same,"Plant response rating, Corn",corn (Zea mays); [18],0
same,Corn plant response rating,corn (Zea mays); [19],10
same,Wheat plant response rating,[11]; [16],0
same,"Plant response rating, Wheat",[11]; [17],60
same,"Plant response rating, Wheat",[11]; [18],30
same,"Plant response rating, Wheat",[11]; [19],60
same,"Plant response rating, Barnyardgrass",[12],20
same,"Plant response rating, Ducksalad",[13],100
same,"Plant response rating, Rice",rice (Oryza sativa),0
same,"Plant response rating, Sedge, Umbrella",[14],90
